# Data reported in patent US20240150293A1, “SPIROCYCLOHEXANE DERIVATIVES, PHARMACEUTICAL COMPOSITIONS CONTAINING THEM AND THEIR USES AS ANTI-APOPTOTIC INHIBITORS” (LES LABORATOIRES SERVIER, priority 2021, published 2024).
# pIC50, pKi: −log10 of the molar value. Like-named read-outs stand apart in the source and are kept apart here.
# Legend:
# NCI-H929 cell lines = experiment: In vitro cytotoxicity, CellTiter-Glo (CTG) assay (Example B, Method B); type: cell-based; settings: NCI-H929 cells, 48 h incubation, read-out: C50
# Procedure, shortened: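 ATP-based luminescence (CellTiter-Glo) after 48 h incubation at 37° C., 5% CO2 gave NCI-H929 viability. Eleven concentrations tested, highest final 30 μM, dispensed acoustically from 10 mM DMSO stocks; C50 defined as concentration reaching 50% viability.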
# [1] = target: Cy5-labelled Mcl1 (amino acids 171-321) C286S protein (UniProtKB Q07820) (Homo sapiens (Human), UniProt Q07820, C286S); experiment: Inhibition of Mcl-1 by the fluorescence quenching assay (Example A, Method B); type: binding
# Procedure, shortened: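 Eleven-point compound series incubated 2 h at room temperature with 1 nM Cy5-tagged protein and quencher-labelled PUMA peptide at 10, 20 or 400 nM in HEPES/NaCl/Tween 20, pH 7.4, 5% DMSO. IC50 for 50% fluorescence increase by 4-parameter fit, then Ki derived (complete cKi or estimated eKi).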
# Chain of Cy5-labelled Mcl1 (amino acids 171-321) C286S protein (Q07820 171-321 C286S): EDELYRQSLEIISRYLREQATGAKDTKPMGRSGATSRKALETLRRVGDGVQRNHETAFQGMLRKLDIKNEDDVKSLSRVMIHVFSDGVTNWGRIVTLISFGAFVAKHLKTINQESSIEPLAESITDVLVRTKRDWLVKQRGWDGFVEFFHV
SMILES,pKi [1],pKi ([1]; Ki determined from IC50),"pIC50 (NCI-H929 cell lines; Homo sapiens, NCI-H929, 48 h)",pIC50 (NCI-H929 cell lines)
"C[C@@H](COc1ccnc2c1[C@H](C)CCC2)C[C@H]1Cc2cc3c(cc2[C@]12CC[C@@](Nc1cccc(Cl)c1)(C(=O)OCOP(=O)(OC(C)(C)C)OC(C)(C)C)CC2)OCO3 [Example 951, [(di-tert-butoxyphosphoryl)oxy]methyl (1r,4S,6′S)-4-(3-chloroanilino)-6′-[(2R)-2-methyl-3-{[(5R)-5-methyl-5,6,7,8-tetrahydroquinolin-4-yl]oxy}propyl]-6′,7′-dihydro-2′H-spiro[cyclohexane-1,5′-indeno[5,6-d][1,3]dioxole]-4-carboxylate]",7.43,–,5.75,–
"Cc1c(Cl)cccc1N[C@]1(C(=O)O)CC[C@]2(CC1)c1ccc(F)cc1CN2C[C@@H](C)COc1ccnc2c1[C@H](C)CCC2 [Example 52, (1s,4S)-4-(3-chloro-2-methylanilino)-5′-fluoro-2′-[(2R)-2-methyl-3-{[(5R)-5-methyl-5,6,7,8-tetrahydroquinolin-4-yl]oxy}propyl]-2′,3′-dihydrospiro[cyclohexane-1,1′-isoindole]-4-carboxylic acid]",–,9.23,6.34,–
"CC(C)Oc1cc2c(cc1Cl)C[C@H](C[C@@H](C)COc1ccnc3c1[C@H](C)CCC3)[C@]21CC[C@](Nc2cccc(Cl)c2)(C(=O)O)CC1 [Example 819, (1r,2′S,4S)-5′-chloro-4-(3-chloroanilino)-2′-[(2R)-2-methyl-3-{[(5R)-5-methyl-5,6,7,8-tetrahydroquinolin-4-yl]oxy}propyl]-6′-[(propan-2-yl)oxy]-2′,3′-dihydrospiro[cyclohexane-1,1′-indene]-4-carboxylic acid]",9.79,–,6.82,–
"COC(=O)OCOC(=O)[C@]1(Nc2cccc(Cl)c2)CC[C@@]2(CC1)c1cc3c(cc1C[C@@H]2C[C@@H](C)COc1ccnc2c1[C@H](C)CCC2)OCO3 [Example 946, [(methoxycarbonyl)oxy]methyl (1r,4S,6′S)-4-(3-chloroanilino)-6′-[(2R)-2-methyl-3-{[(5R)-5-methyl-5,6,7,8-tetrahydroquinolin-4-yl]oxy}propyl]-6′,7′-dihydro-2′H-spiro[cyclohexane-1,5′-indeno[5,6-d][1,3]dioxole]-4-carboxylate]",7.96,–,7.47,–
"CCOc1cc2c(cc1C)CC(C[C@@H](C)COc1ccnc3c1[C@H](C)CCC3)[C@]21CC[C@](Nc2cccc(Cl)c2)(C(=O)O)CC1 (stereo partly drawn) [Example 824, (1r,4R)-4-(3-chloroanilino)-6′-ethoxy-5′-methyl-2′-[(2R)-2-methyl-3-{[(5R)-5-methyl-5,6,7,8-tetrahydroquinolin-4-yl]oxy}propyl]-2′,3′-dihydrospiro[cyclohexane-1,1′-indene]-4-carboxylic acid]",9.48,–,6.38,–
"C[C@@H](COc1ccnc2c1[C@H](C)CCC2)C[C@H]1Cc2ccc(-c3ccn(C)c3)cc2[C@]12CC[C@@](Nc1cccc(Cl)c1)(C(=O)O)CC2 [Example 883, (1r,2′S,4S)-4-(3-chloroanilino)-2′-[(2R)-2-methyl-3-{[(5R)-5-methyl-5,6,7,8-tetrahydroquinolin-4-yl]oxy}propyl]-6′-(1-methyl-1H-pyrrol-3-yl)-2′,3′-dihydrospiro[cyclohexane-1,1′-indene]-4-carboxylic acid]",9.61,–,6.88,–
"COCCNC(=O)OC(C)OC(=O)[C@]1(Nc2cccc(Cl)c2)CC[C@@]2(CC1)c1cc3c(cc1C[C@@H]2C[C@@H](C)COc1ccnc2c1[C@H](C)CCC2)OCO3 (stereo partly drawn) [Example 947, 1-{[(2-methoxyethyl)carbamoyl]oxy}ethyl (1r,4S,6′S)-4-(3-chloroanilino)-6′-[(2R)-2-methyl-3-{[(5R)-5-methyl-5,6,7,8-tetrahydroquinolin-4-yl]oxy}propyl]-6′,7′-dihydro-2′H-spiro[cyclohexane-1,5′-indeno[5,6-d][1,3]dioxole]-4-carboxylate]",9.59,–,6.22,–
"C[C@@H](COc1ccnc2c1[C@H](C)CCC2)CN1Cc2cc(Cl)ccc2[C@]12CC[C@@](Nc1cccc(Cl)c1)(C(=O)O)CC2 [Example 56, (1s,4S)-5′-chloro-4-(3-chloroanilino)-2′-[(2R)-2-methyl-3-{[(5R)-5-methyl-5,6,7,8-tetrahydroquinolin-4-yl]oxy}propyl]-2′,3′-dihydrospiro[cyclohexane-1,1′-isoindole]-4-carboxylic acid]",–,9.12,6.82,–
"CC(C)[C@@H]1CCOc2cc3c(cc2O1)C[C@H](C[C@@H](C)COc1ccnc2c1[C@H](C)CCC2)[C@]31CC[C@](Nc2cccc(Cl)c2)(C(=O)O)CC1 [Example 997, (1r,2′S,4S,8′S)-4-(3-chloroanilino)-8′-[(2R)-2-methyl-3-{[(5R)-5-methyl-5,6,7,8-tetrahydroquinolin-4-yl]oxy}propyl]-2′-(propan-2-yl)-3′,4′,8′,9′-tetrahydro-2′H-spiro[cyclohexane-1,7′-indeno[5,6-b][1,4]dioxepine]-4-carboxylic acid]",8.38,–,6.02,–

# The next lines start with results.
pKi [1],pKi ([1]; Ki determined from IC50),SMILES,"pIC50 (NCI-H929 cell lines; Homo sapiens, NCI-H929, 48 h)",pIC50 (NCI-H929 cell lines)
10.43,–,"CC1COc2cc3c(cc2OC1)[C@]1(CC[C@@](Nc2cccc(Cl)c2)(C(=O)O)CC1)[C@@H](C[C@@H](C)COc1ccnc2c1[C@H](C)CCC2)C3 (single isomer, unassigned) [Example 983]",–,7.13
10.04,–,"Cc1ccc2c(c1)C[C@H](C[C@@H](C)COc1ccnc3c1[C@H](C)CCC3)[C@]21CC[C@](Nc2cccc(Cl)c2)(C(=O)O)CC1 [Example 853, (1r,2′S,4S)-4-(3-chloroanilino)-5′-methyl-2′-[(2R)-2-methyl-3-{[(5R)-5-methyl-5,6,7,8-tetrahydroquinolin-4-yl]oxy}propyl]-2′,3′-dihydrospiro[cyclohexane-1,1′-indene]-4-carboxylic acid]",6.86,–
10.64,–,"CC[C@H]1COc2cc3c(cc2O1)[C@]1(CC[C@@](Nc2cccc(Cl)c2)(C(=O)O)CC1)[C@@H](C[C@@H](C)COc1ccnc2c1[C@H](C)CCC2)C3 [Example 977, (1r,3'S,4S,7′S)-4-(3-chloroanilino)-3′-ethyl-7′-[(2R)-2-methyl-3-{[(5R)-5-methyl-5,6,7,8-tetrahydroquinolin-4-yl]oxy}propyl]-2′,3′,7′,8′-tetrahydrospiro[cyclohexane-1,6′-indeno[5,6-b][1,4]dioxine]-4-carboxylic acid]",7.25,–
11.14,–,"C[C@@H](COc1ccnc2c1[C@H](C)CCC2)C[C@H]1Cc2cc3c(cc2[C@]12CC[C@@](Nc1cccc(Cl)c1)(C(=O)O)CC2)O[C@@H](C)CCO3 [Example 984, (1r,4S,4'S,8′S)-4-(3-chloroanilino)-4′-methyl-8′-[(2R)-2-methyl-3-{[(5R)-5-methyl-5,6,7,8-tetrahydroquinolin-4-yl]oxy}propyl]-3′,4′,8′,9′-tetrahydro-2′H-spiro[cyclohexane-1,7′-indeno[5,6-b][1,4]dioxepine]-4-carboxylic acid]",7.45,–
10.09,–,"C[C@@H](COc1ccnc2c1[C@H](C)CCC2)C[C@H]1Cc2cccc(F)c2[C@]12CC[C@@](Nc1cccc(Cl)c1)(C(=O)O)CC2 [Example 763, (1r,2′S,4S)-4-(3-chloroanilino)-7′-fluoro-2′-[(2R)-2-methyl-3-{[(5R)-5-methyl-5,6,7,8-tetrahydroquinolin-4-yl]oxy}propyl]-2′,3′-dihydrospiro[cyclohexane-1,1′-indene]-4-carboxylic acid]",6.93,–
9.83,–,"COCCOc1cc2c(cc1Cl)C[C@H](C[C@@H](C)COc1ccnc3c1[C@H](C)CCC3)[C@]21CC[C@](Nc2cccc(Cl)c2)(C(=O)O)CC1 [Example 822, (1r,2′S,4S)-5′-chloro-4-(3-chloroanilino)-6′-(2-methoxyethoxy)-2′-[(2R)-2-methyl-3-{[(5R)-5-methyl-5,6,7,8-tetrahydroquinolin-4-yl]oxy}propyl]-2′,3′-dihydrospiro[cyclohexane-1,1′-indene]-4-carboxylic acid]",7.19,–
10.46,–,"C[C@@H](COc1ccnc2c1[C@H](C)CCC2)C[C@H]1Cc2cc3c(cc2[C@]12CC[C@@](Nc1cccc(Cl)c1)(C(=O)O)CC2)OC(C)(C)O3 [Example 848, (1r,4S,6′S)-4-(3-chloroanilino)-2′,2′-dimethyl-6′-[(2R)-2-methyl-3-{[(5R)-5-methyl-5,6,7,8-tetrahydroquinolin-4-yl]oxy}propyl]-6′,7′-dihydro-2′H-spiro[cyclohexane-1,5′-indeno[5,6-d][1,3]dioxole]-4-carboxylic acid]",7.31,–
9.81,–,"C[C@@H](COc1ccnc2c1[C@H](C)CCC2)C[C@H]1Cc2ccc(-c3cccn3C)cc2[C@]12CC[C@@](Nc1cccc(Cl)c1)(C(=O)O)CC2 [Example 881, (1r,2′S,4S)-4-(3-chloroanilino)-2′-[(2R)-2-methyl-3-{[(5R)-5-methyl-5,6,7,8-tetrahydroquinolin-4-yl]oxy}propyl]-6′-(1-methyl-1H-pyrrol-2-yl)-2′,3′-dihydrospiro[cyclohexane-1,1′-indene]-4-carboxylic acid]",6.82,–
9.98,–,"C[C@@H](COc1ccnc2c1[C@H](C)CCC2)C[C@H]1Cc2cc3c(cc2[C@]12CC[C@@](Nc1cccc(Cl)c1F)(C(=O)O)CC2)OCO3 [Example 846, (1r,4S,6′S)-4-(3-chloro-2-fluoroanilino)-6′-[(2R)-2-methyl-3-{[(5R)-5-methyl-5,6,7,8-tetrahydroquinolin-4-yl]oxy}propyl]-6′,7′-dihydro-2′H-spiro[cyclohexane-1,5′-indeno[5,6-d][1,3]dioxole]-4-carboxylic acid]",7.38,–
